From the NIST ThermoML archive (doi:10.1016/j.jct.2009.03.009)

Columns and labels:
[1] = xn = mol fraction of the nth substance listed; settings: 313.15 K, 101 kPa, Liquid; for speed of sound: Sing-around technique in a fixed-path interferometer; for mass density: Vibrating tube method
[2] = refractive index (Na D-line) (dimensionless); xn = mol fraction of the nth substance listed; settings: 313.15 K, 101 kPa, Liquid, Standard Abbe refractometry

Cc1ccccc1 [toluene] + CCCCCCC
Settings | mass density, [1] [kg/m3] | refractive index, [2] | speed of sound, [1] [m/s]
x2 = 0 | 848 | 1.48464 | 1240.7
x2 = 0.0496 | 835.7 | 1.47712 | 1225.2
x2 = 0.1037 | 822.8 | 1.46965 | 1211.4
x2 = 0.204 | 800.2 | 1.45586 | 1185.7
x2 = 0.406 | 759.4 | 1.43176 | 1144.8
x2 = 0.5045 | 741.5 | 1.42117 | 1127.8
x2 = 0.6016 | 724.9 | 1.41138 | 1113.1
x2 = 0.7011 | 709 | 1.40201 | 1099.4
x2 = 0.8029 | 693.7 | 1.39298 | 1087
x2 = 0.9019 | 679.7 | 1.38489 | 1075.9
x2 = 0.9517 | 673 | 1.38102 | 1071.2

Cc1ccccc1 [toluene] + CCCCCCCC
x2 = 0
Settings | mass density [kg/m3] | refractive index | speed of sound [m/s]
[1] | 848 | – | 1240.7
[2] | – | 1.48509 | –

Cc1ccccc1 [toluene] + CCCCCCCCC
x2 = 0
Settings | mass density [kg/m3] | refractive index | speed of sound [m/s]
[1] | 848 | – | 1240.7
[2] | – | 1.48464 | –
